Source: PubChem BioAssay AID270 (DTP/NCI, 2004)
“And” between values parts separate entries of the source, which are not always exact repeats. Equal values may be shown once. Inconclusive results are not listed.

Test system: BDF1 mice, s.c. Lewis lung carcinoma, T/C %
Assay: NCI In Vivo Anticancer Drug Screen. Data for tumor model Lewis Lung Carcinoma (subcutaneous) in B6D2F1 (BDF1) mice
How it was run: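 The value reflects a ratio in which the treated cohort's survival time or tumour size is compared against mice receiving only vehicle.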

[1] = endpoint: mean tumor weight, dose: 2.5 mg/kg/injection, schedule: Q01DX011 (ip), vehicle: saline, higher = larger tumour
[2] = endpoint: mean tumor weight, dose: 10.0 mg/kg/injection, schedule: Q01DX011 (ip), vehicle: saline, higher = larger tumour

In the case of `COC(=O)C1CCC(NC(=O)N(CCCl)N=O)CC1` (stereo not drawn), the T/C (endpoint: median survival time, dose: 14.0 mg/kg/injection, schedule: Q01DX001 (ip), vehicle: saline with Tween-80, higher = longer survival) is reported as 206 % of control, the T/C (endpoint: median survival time, dose: 21.0 mg/kg/injection, schedule: Q01DX001 (ip), vehicle: saline with Tween-80, higher = longer survival) is reported as 223 % of control and the T/C (endpoint: median survival time, dose: 23.0 mg/kg/injection, schedule: Q01DX001 (ip), vehicle: saline with Tween-80, higher = longer survival) is reported as 180 % of control. For the same compound, the T/C (endpoint: median survival time, dose: 24.0 mg/kg/injection, schedule: Q01DX001 (ip), vehicle: saline with Tween-80, higher = longer survival) was 152 % of control, the T/C (endpoint: median survival time, dose: 32.0 mg/kg/injection, schedule: Q01DX001 (ip), vehicle: saline with Tween-80, higher = longer survival) was 188 % of control and the T/C (endpoint: median survival time, dose: 36.0 mg/kg/injection, schedule: Q01DX001 (ip), vehicle: saline with Tween-80, higher = longer survival) was 219 % of control. The T/C (endpoint: median survival time, dose: 54.0 mg/kg/injection, schedule: Q01DX001 (ip), vehicle: saline with Tween-80, higher = longer survival) was 198 % of control and the T/C (endpoint: median survival time, dose: 81.0 mg/kg/injection, schedule: Q01DX001 (ip), vehicle: saline with Tween-80, higher = longer survival) was 94 % of control.
In the case of `N=[N+]=CC(=O)OCC(N)C(=O)O` (stereo not drawn), the T/C [1] is reported as 76 % of control and 81 % of control and the T/C [2] is reported as 24 % of control and 31 % of control.
With `CC1OC(O[C@@H]2C=C3CC[C@@H]4[C@H](CC[C@]5(C)[C@@H](c6ccc(=O)oc6)CC[C@]45O)[C@@]3(C)CC2)C(O)C(O)C1O` (stereo partly drawn) the T/C (endpoint: mean tumor weight, dose: 1.25 mg/kg/injection, schedule: Q01DX011 (ip), vehicle: saline, higher = larger tumour) was 114 % of control, the T/C [1] was 90 % of control and the T/C (endpoint: mean tumor weight, dose: 5.0 mg/kg/injection, schedule: Q01DX011 (ip), vehicle: saline, higher = larger tumour) was 64 % of control. The T/C [2] was 83 % of control.
`CSc1ccc(NC(=O)N(CCCl)N=O)cc1` was tested, and the T/C (endpoint: median survival time, dose: 6.25 mg/kg/injection, schedule: Q01DX009 (ip), vehicle: Klucel (hydroxypropylcellulose) (HPC), higher = longer survival) was 115 % of control, the T/C (endpoint: median survival time, dose: 12.5 mg/kg/injection, schedule: Q01DX009 (ip), vehicle: Klucel (hydroxypropylcellulose) (HPC), higher = longer survival) was 90 % of control and the T/C (endpoint: median survival time, dose: 25.0 mg/kg/injection, schedule: Q01DX009 (ip), vehicle: Klucel (hydroxypropylcellulose) (HPC), higher = longer survival) was 106 % of control. For the same compound, the T/C (endpoint: median survival time, dose: 50.0 mg/kg/injection, schedule: Q01DX009 (ip), vehicle: Klucel (hydroxypropylcellulose) (HPC), higher = longer survival) was 103 % of control.
For `NC(=O)c1[nH]nc(C2OC(CO)C(O)C2O)c1O` (stereo not drawn), the T/C (endpoint: median survival time, dose: 1.73 mg/kg/injection, schedule: Q04DX003 (iv), vehicle: saline, higher = longer survival) was 191 % of control, the T/C (endpoint: median survival time, dose: 5.2 mg/kg/injection, schedule: Q04DX003 (iv), vehicle: saline, higher = longer survival) was 117 % of control and the T/C (endpoint: median survival time, dose: 15.6 mg/kg/injection, schedule: Q04DX003 (iv), vehicle: saline, higher = longer survival) was 69 % of control.
For `CCCNC(=NC)c1ccc(NC(=O)c2ccc(C(=O)Nc3ccc(C(=NC)NCCC)cc3)cc2)cc1`, the T/C (endpoint: mean tumor weight, dose: 2.5 mg/kg/injection, schedule: Q01DX011 (ip), vehicle: other, higher = larger tumour) was 124 % of control and the T/C (endpoint: mean tumor weight, dose: 5.0 mg/kg/injection, schedule: Q01DX011 (ip), vehicle: other, higher = larger tumour) was 56 % of control.
